Earlier results in patent publication US7189722B2, “Aryl spirohydantoin CGRP receptor antagonists” (Merck & Co., Inc., priority 2003, dated 2007).
Read-outs that look alike come from different tables or passages of the source. Ends that are not written are not given here.

Experiments:
facial blood flow [1] = conditions: marmoset, electrical stimulation of the trigeminal ganglion (Doods et al. 2000)
facial blood flow [2] = conditions: rat, trigeminal ganglion stimulation (Escott et al. 1995)
[3] = tested on: middle meningeal artery diameter; conditions: rats, electrical stimulation of the dura mater, prior administration (Williamson et al. 1997)

Molecule	effect on increase of facial blood flow (facial blood flow [1])	effect on increase of facial blood flow (facial blood flow [2])	effect on increase of middle meningeal artery diameter [3]
NCCCC[C@H](NC(=O)[C@@H](Cc1cc(Br)c(O)c(Br)c1)NC(=O)N1CCC(N2Cc3ccccc3NC2=O)CC1)C(=O)N1CCN(c2ccncc2)CC1 [BIBN4096BS]	blocked		
CGRP(8-37): a peptide CGRP antagonist (VTHRLAGLLSRSGGVVKNNFVPTNVGSKAF; ends and bridges not checked; UniProt P06881 90-119, looked up, fragment)		inhibited	blocked
